Assays:
[1] = target: T1, FurX (Cupriavidus pinatubonensis, UniProt Q46UZ9); test: affinity measurement, method only in supplement; format: binding
T1 sequence (Q46UZ9 1-342): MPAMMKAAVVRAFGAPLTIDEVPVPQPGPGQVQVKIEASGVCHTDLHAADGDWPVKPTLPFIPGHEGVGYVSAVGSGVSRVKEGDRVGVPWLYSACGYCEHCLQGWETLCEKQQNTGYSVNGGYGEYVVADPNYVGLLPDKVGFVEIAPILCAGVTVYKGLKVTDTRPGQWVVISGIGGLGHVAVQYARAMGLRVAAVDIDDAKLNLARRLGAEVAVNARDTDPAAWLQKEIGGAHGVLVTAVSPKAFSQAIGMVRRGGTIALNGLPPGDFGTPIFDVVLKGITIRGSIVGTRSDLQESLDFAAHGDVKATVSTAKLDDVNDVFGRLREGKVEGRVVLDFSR

[2] = target: FurX, Zn-dependent alcohol dehydrogenase from Cupriavidus necator JMP134 (Cupriavidus necator JMP134); test: SEC-MALS

| stoichiometry N [2] | Compound | Kd [1] [µM] |
| --- | --- | --- |
|  | NC(=O)c1ccc[n+]([C@@H]2O[C@H](COP(=O)(O)OP(=O)(O)OC[C@H]3O[C@@H](n4cnc5c(N)ncnc54)[C@H](O)[C@@H]3O)[C@@H](O)[C@H]2O)c1 [NAD^+] | 87 |
|  | OCc1ccco1 [furfuryl alcohol] | > 1000 |
| 4 | FurX, Zn-dependent alcohol dehydrogenase from Cupriavidus necator JMP134 (enzyme) |  |
